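A five-concentration, 48-hour dose response in 96-well plates underlies each endpoint, interpolated linearly between surrounding concentrations. The concentration for 50% growth inhibition is given as GI50.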 Active and inactive are the calls of the source. Rule as the data show it: active = GI50 up to about 1.1 µM and inactive = higher.

Among the test systems are SF-295; RPMI-8226; MDA-MB-231; 786-0; NCI-H226; RXF 393; MDA-N; SNB-19; U-251; SF-268; UO-31; SNB-75; SN12C; IGROV-1; K562; MDA-MB-435; LOX IMVI; HOP-62.
Holding throughout (experiment): NCI tumour cell line growth inhibition, 48 h

As to `COC(=O)c1c(C#C[Si](C)(C)C)c(C#C[Si](C)(C)C)c(C#C[Si](C)(C)C)c(C#C[Si](C)(C)C)c1C(=O)OC`, the GI50 in the experiment with SF-295, in the experiment with RPMI-8226, in the experiment with MDA-MB-231, with 786-0, in the experiment with NCI-H226 and in the experiment on RXF 393 was > 100 µM (inactive) each time. Moreover, the GI50 in the experiment on MDA-N, in the experiment with SNB-19, in the experiment on U-251, with SF-268, in the experiment with UO-31 and with SNB-75 was > 100 µM (inactive) each time. For the same compound, the GI50 with SN12C, in the experiment with IGROV-1, with K562 and in the experiment with MDA-MB-435 was > 100 µM (inactive) each time.
Regarding `O=C1Nc2ccc([N+](=O)[O-])cc2/C1=N/NC(=S)Nc1ccccc1`, the GI50 in the experiment on LOX IMVI is 9.46 µM (inactive); in the experiment on SF-295, 4.34 µM (inactive); in the experiment with RPMI-8226, 15.5 µM (inactive); in the experiment with MDA-MB-231, 12.3 µM (inactive); in the experiment with 786-0, 5.43 µM (inactive); in the experiment with NCI-H226 it was 18.5 µM (inactive). Besides, the GI50 is 11.6 µM (inactive) with RXF 393; 6.35 µM (inactive) in the experiment with MDA-N; 5.35 µM (inactive) with SNB-19; 4.93 µM (inactive) in the experiment with U-251; 8.57 µM (inactive) with HOP-62; 4.79 µM (inactive) with UO-31. The GI50 in the experiment on SNB-75 is 7.57 µM (inactive); with SN12C, 5.9 µM (inactive); with IGROV-1, 1.41 µM (inactive); in the experiment with K562, 4.92 µM (inactive); in the experiment on MDA-MB-435, 10.1 µM (inactive).
As to `CCn1c2c(c3ccccc3c1=O)C(=O)c1ccccc1-2`, the GI50 was > 100 µM (inactive) in the experiment with LOX IMVI; > 100 µM (inactive) with SF-295; > 100 µM (inactive) in the experiment on RPMI-8226; 85.7 µM (inactive) with MDA-MB-231; > 100 µM (inactive) with 786-0; > 100 µM (inactive) in the experiment on NCI-H226. Moreover, the GI50 in the experiment on MDA-N, in the experiment with SNB-19, in the experiment with U-251, in the experiment on HOP-62, with SF-268 and in the experiment on UO-31 was > 100 µM (inactive) in each case. For the same compound, the GI50 in the experiment with SNB-75, with SN12C, with IGROV-1, with K562 and with MDA-MB-435 was > 100 µM (inactive) in each case.
Turning to `Cn1ccnc1SC(F)(F)c1nc2ccccc2o1`, the GI50 in the experiment on SF-295, in the experiment on RPMI-8226, in the experiment with MDA-MB-231, in the experiment on 786-0, in the experiment on NCI-H226 and with RXF 393 was > 100 µM (inactive) each time. Further, the GI50 is > 100 µM (inactive) with MDA-N; > 100 µM (inactive) in the experiment on U-251; > 100 µM (inactive) with HOP-62; > 100 µM (inactive) with SF-268; > 100 µM (inactive) in the experiment with UO-31; 0.043 µM (active) with SNB-75. For the same compound, the GI50 in the experiment with SN12C, in the experiment with IGROV-1, in the experiment with K562 and in the experiment on MDA-MB-435 was > 100 µM (inactive) throughout.
In the case of `N#Cc1c(O)cc(=O)n2c1[nH]c1ccccc12`, the GI50 in the experiment with SF-295 was 64 µM (inactive); with RPMI-8226, > 100 µM (inactive); with MDA-MB-231, > 100 µM (inactive); with 786-0, > 100 µM (inactive); in the experiment on NCI-H226, > 100 µM (inactive); in the experiment on RXF 393, > 100 µM (inactive). Besides, the GI50 with MDA-N, with SNB-19, with U-251, in the experiment on HOP-62, with SF-268 and in the experiment on UO-31 was > 100 µM (inactive) throughout. Further, the GI50 in the experiment on SNB-75, with SN12C, with IGROV-1, with K562 and with MDA-MB-435 was > 100 µM (inactive) each time.
